“Also recorded” adds a separate entry of the source.

In one assay the test system is patients with active CD. In words: Clinical response and CDAI in active CD patients treated with IFX. It counts as in vivo, human. The method, then:
Clinical response for patients treated for perineal disease was assessed by the disappearance of draining fistulas. Blood samples were taken before each infusion and were centrifuged and stored at −80° C. Blood samples were also collected in 37 healthy volunteers. Forty patients with active CD were included in the study (12 males, 28 females, mean age 37.8 years). According to the Montreal classification, the disease was predominantly located into the colon (L2) or the ileocolon (L3) in 62.5 and 32.5% respectively and the disease was mostly non-stricturing and non-penetrating (B1). […] Six patients were treated by a combination of steroids and immunosuppressors, 3 patients received only steroids, 30 only immunosuppressors. Treatments were not modified except steroids which were always stopped between the first and the third infusion. There were no clinical and demographic differences between patients who experienced a response or not to IFX.

In a further assay the test system is sIL-15Rα. The assay can be described thus: Serum sIL-15Rα of CD patients before/after IFX (RIA). The assay is classed as in vivo, human. Particulars: responder patients. How it is done: (§1) The quantification of sIL-15Rα and IL-15 was determined as previously described (Mortier et al. J Immunol 2004; 173:1681-8). Sandwich RIAs were set up in which the goat anti-human IL-15Rα Ab AF247 or the mouse anti-human IL-15 Mab247 (R&D) was used as capture Ab and radio-iodinated anti-human IL-15Rα Ab M161 (GenMab; Copenhagen, Denmark) or radio-iodinated mouse anti human IL-15 BE-29 (Diaclone: Besançon, France) was used as tracer. A purified recombinant sIL-15Rα protein (Bernard et al. J Biol Chem 2004; 279:24313-22) and recombinant IL-15 (Peprotech) were used as standards. Capture Abs were coated (5 μg/mL; 50 μL/well) to high-adsorption Nunc maxisorp plates (Fisher Bioblock Scientific, Illkirch, France). Wells were saturated with PBS-BSA 0.5% for 15 min and samples (50 μL/well) were incubated for 1 h at 4° C. The M161 or BE-29 mAbs were iodinated using the iodogen method and then added (1 nM, 50 μL/well) for 1 h at 4° C. Supernatants of each well were collected and the wells washed twice with PBS. The radioactivity associated to the wells (bound fraction) and contained in the supernatants and washes (unbound fraction) were determined.

Assay [1] has as its system soluble and cell-surface TNFα. The conditions noted are these: cited from earlier work.
The subject of the next assay is human macrophages. In words: sIL-15Rα secretion by human macrophages cultured with IFX, etanercept, GM-6001. It counts as cell-based. The conditions noted are these: for sIL-15Rα secretion: human macrophages, 8 h; for effect on sIL-15Rα secretion by macrophages: versus macrophages cultured without the agent. The method, then:
as §1
Human monocytes were isolated from blood samples of healthy donors. PBMC were collected after Ficoll-Hypaque density centrifugation, resuspended at 7×10^6 cells/mL and allowed to adhere in culture flasks (RPMI 1640 supplemented with L-glutamine, streptomycin, penicillin, 10% FCS) for 1 h 30 at 37° C. Nonadherent cells were removed and adherent cells were washed five times with PBS. Monocytes were further differentiated for 5 days in the same medium supplemented with GM-CSF (100 ng/mL). […] After incubation, supernatants were obtained by centrifugation.

The test system of the next assay is IL-15. In words: Serum IL-15 of CD patients before/after IFX (RIA). It counts as in vivo, human. How it is done:
as §1
The upper normal value of IL-15 (6.1 pM) was calculated by the mean+2 SD of the values measured in healthy volunteers.

In a further assay the test system is TNFα. The assay can be described thus: Serum TNFα of CD patients before/after IFX (WEHI 164 XTT bio-assay). It counts as in vivo, human. How it is done:
TNFα concentrations were measured in the serum of 43 patients (33 responder patients, 10 non-responders). Quantification TNFα was performed by the XTT method using the murine cell line WEHI 164 (ATCC N^o CRL1751) (Espevik et al. J Immunol Methods 1986; 95:99-105). Cells were seeded in 96-well plates (3×10^4 cells/50 μL/well) and grown at 37° C. in RPMI 1640 supplemented with […] of glutamine, 10% heat-inactivated FCS, LiCl and actinomycin D. Sera from CD patients and healthy volunteers were serially diluted, added to wells and a purified recombinant TNFα (R&D) was used as standard. After 20 h of culture, 50 μL/well of XTT and electron coupling reagent was added and cell survival was determined by measuring the optical density at 450 nm. The sensitivity of the assay was 0.10 pg/mL. The TNFα upper normal limit was calculated by the mean+2 SD of the values obtained in the healthy volunteers.
A general note: Formazan colour is commonly taken as a measure of viable cells.

The next assay deals with CD. Particulars: in vivo; cited from earlier work.
Setting [2] is: according to TNF and CRP levels and CDAI, 40 patients, 5 treated twice (45 courses).
The mark [3] stands for this setting: 0.01 μg/mL IFX or etanercept, cells without IFX 2.0±0.6 pM.
Setting [4] is: experiment with GM-6001 0.2 nM, IFX 0.01 μg/mL, control 1.4±0.9 pM.

Chain of soluble and cell-surface TNFα (P01375 77-233 limits assumed): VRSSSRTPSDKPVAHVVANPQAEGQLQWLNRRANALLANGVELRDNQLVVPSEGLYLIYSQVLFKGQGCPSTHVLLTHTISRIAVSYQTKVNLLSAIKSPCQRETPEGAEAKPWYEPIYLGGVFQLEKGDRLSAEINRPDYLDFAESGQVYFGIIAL

On to “IFX: anti-TNFα monoclonal antibody, a mouse-human chimeric whole antibody (Remicade; Centocor)”, for which, in the assay on patients with active CD (setting [2]), the “patients classified as non-responders to IFX” value was 10 patients. Moreover, in the assay on patients with active CD (setting [2]), the “patients classified as responders to IFX” value was 35 patients. Besides, the “patients with mucosal healing” value in the assay on patients with active CD (three biopsied CD patients, all with clinical responses) was “two”. In addition, the “increase of the proportion of patients with detectable sIL-15Rα after IFX” value in the assay on sIL-15Rα is 38%. Moreover, in assay [1], the “binding to soluble and cell-surface TNFα” value is “high affinity and specificity”. In addition, the sIL-15Rα secretion in the assay with human macrophages (setting [3]) stood at 18.0 ± 1.2 pM; in the assay with human macrophages (setting [4]), 22.4 ± 2.0 pM. Moreover, the “effect on sIL-15Rα secretion by macrophages” value with human macrophages is “increased significantly; also recorded: induced; also recorded: markedly increased”. In addition, the “median IL-15 levels after IFX” value in the assay with IL-15 (non-responder patients, serum) is reported as “not modified”. In addition, the “patients in whom IL-15 was undetectable after IFX” value in the assay on IL-15 (responder patients, 15/35, before IFX 26% (9/35)) is listed as 43%. The “patients in whom IL-15 dropped below the control value” with IL-15 (responder patients, 29/35, after IFX) turned out to be 83%. Moreover, in the assay on TNFα (week 6, 9/10), the “non-responder patients in whom TNF remained above the control value” is listed as 90%. For the same compound, in the assay with TNFα (week 6, 20/33), the “responder patients with individual TNFα values dropping to control ranges” value is given as 61%. In the assay on TNFα (week 6, 31/33), the “responder patients in whom TNFα decreased” value is given as 94%.

With etanercept, in the assay with CD, the “efficacy in CD” value is on record as “inefficient in CD; also recorded: poor efficacy”. Moreover, the sIL-15Rα secretion in the assay with human macrophages (setting [3]) was 6.3 ± 0.9 pM. For the same compound, the “effect on sIL-15Rα secretion by macrophages” value in the assay with human macrophages is given as “did not significantly affect; also recorded: did not induce”.

For the compound `CNC(=O)[C@H](Cc1c[nH]c2ccccc12)NC(=O)[C@@H](CC(=O)NO)CC(C)C` [GM-6001], in the assay on human macrophages (GM-6001 added with IFX), the “inducing effect of IFX on sIL-15Rα secretion” value is “completely inhibited”. The “basal sIL-15Rα secretion” value in the assay with human macrophages (GM-6001 alone versus control cells) is on record as “not modified; also recorded: did not affect”. This compound came in with a sIL-15Rα secretion in the assay on human macrophages (setting [4]) of 4.5 ± 3.0 pM.

(Values after US20120058110A1, “Method for Predicting the Responsiveness to an Anti-TNF Alpha Antibody Treatment” (INSERM (INSTITUT NATIONAL DE LA SANTE ET DE LA RECHERCHE …, priority 2009, published 2012).)
